Experimental data as given in the supplement of paper PMC11451515.

Test system: NOMO1
Experiment: cell viability relative to DMSO control; higher = less cytotoxic
Conditions: 48 h
In short: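 Viability was expressed as a per-plate percentage of DMSO wells, with cell-free wells as background. Leukemia cells (NOMO1 or SEM at 500 cells/well, P12-Ichikawa at 1000 cells/well) were adapted for at least four passages in each medium and seeded in 1536-well plates (5 μl). Library compounds in DMSO were pin-dosed over an 11-point threefold series from 47 μM to 0.79 nM, and CellTiter-Glo One luminescence was read after 48 h at 37°C.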

[1] = HPLM + 10% dialyzed FBS, 0.000781 µM
[2] = HPLM + 10% dialyzed FBS, 0.00234 µM
[3] = HPLM + 10% dialyzed FBS, 0.00702 µM
[4] = HPLM + 10% dialyzed FBS, 0.0211 µM
[5] = HPLM + 10% dialyzed FBS, 0.0632 µM
[6] = HPLM + 10% dialyzed FBS, 0.19 µM
[7] = HPLM + 10% dialyzed FBS, 0.569 µM
[8] = HPLM + 10% dialyzed FBS, 1.71 µM
[9] = HPLM + 10% dialyzed FBS, 5.12 µM
[10] = HPLM + 10% dialyzed FBS, 15.4 µM
[11] = HPLM + 10% dialyzed FBS, 46.1 µM
[12] = RPMI 5 mM glucose + 10% FBS, 0.000781 µM
[13] = RPMI 5 mM glucose + 10% FBS, 0.00234 µM
[14] = RPMI 5 mM glucose + 10% FBS, 0.00702 µM
[15] = RPMI 5 mM glucose + 10% FBS, 0.0211 µM
[16] = RPMI 5 mM glucose + 10% FBS, 0.0632 µM
[17] = RPMI 5 mM glucose + 10% FBS, 0.19 µM
[18] = RPMI 5 mM glucose + 10% FBS, 0.569 µM
[19] = RPMI 5 mM glucose + 10% FBS, 1.71 µM
[20] = RPMI 5 mM glucose + 10% FBS, 5.12 µM
[21] = RPMI 5 mM glucose + 10% FBS, 15.4 µM
[22] = RPMI 5 mM glucose + 10% FBS, 46.1 µM
[23] = RPMI 5 mM glucose + 10% dialyzed FBS, 0.000781 µM
[24] = RPMI 5 mM glucose + 10% dialyzed FBS, 0.00234 µM
[25] = RPMI 5 mM glucose + 10% dialyzed FBS, 0.00702 µM
[26] = RPMI 5 mM glucose + 10% dialyzed FBS, 0.0211 µM
[27] = RPMI 5 mM glucose + 10% dialyzed FBS, 0.0632 µM
[28] = RPMI 5 mM glucose + 10% dialyzed FBS, 0.19 µM
[29] = RPMI 5 mM glucose + 10% dialyzed FBS, 0.569 µM
[30] = RPMI 5 mM glucose + 10% dialyzed FBS, 1.71 µM
[31] = RPMI 5 mM glucose + 10% dialyzed FBS, 5.12 µM
[32] = RPMI 5 mM glucose + 10% dialyzed FBS, 15.4 µM
[33] = RPMI 5 mM glucose + 10% dialyzed FBS, 46.1 µM

Compound | cell viability [1] [%] | cell viability [2] [%] | cell viability [3] [%] | cell viability [4] [%] | cell viability [5] [%] | cell viability [6] [%] | cell viability [7] [%] | cell viability [8] [%] | cell viability [9] [%] | cell viability [10] [%] | cell viability [11] [%] | cell viability [12] [%] | cell viability [13] [%] | cell viability [14] [%] | cell viability [15] [%] | cell viability [16] [%] | cell viability [17] [%] | cell viability [18] [%] | cell viability [19] [%] | cell viability [20] [%] | cell viability [21] [%] | cell viability [22] [%] | cell viability [23] [%] | cell viability [24] [%] | cell viability [25] [%] | cell viability [26] [%] | cell viability [27] [%] | cell viability [28] [%] | cell viability [29] [%] | cell viability [30] [%] | cell viability [31] [%] | cell viability [32] [%] | cell viability [33] [%]
NC(=O)Nc1sc(-c2ccc(F)cc2)cc1C(N)=O | 108 | 112 | 117 | 111 | 121 | 102 | 94.5 | 99.8 | 83.8 | 60.2 | 55.2 | 117 | 99.7 | 115 | 96 | 113 | 110 | 96.7 | 92.4 | 95.9 | 78 | 50.5 | 101 | 111 | 111 | 100 | 103 | 107 | 104 | 79.4 | 75.6 | 62 | 54.1
OC1=CC2=C(C=C1)C(=O)\C(=C(O2)\C3=CC(=C(O)C=C3)O)O | 105 | 98 | 108 | 93 | 102 | 97.1 | 91.2 | 105 | 84 | 93.9 | 65.6 | 85.9 | 91.3 | 96.2 | 6.71 | 96.6 | 85 | 99.7 | 88.9 | 74.5 | 74.8 | 67.5 | 96.5 | 103 | 101 | 96.3 | 100 | 92 | 93.3 | 89.5 | 81.3 | 81.3 | 60.1
COc1cc([C@@H]2c3cc4c(cc3[C@H](O)[C@H]3COC(=O)[C@@H]23)OCO4)cc(OC)c1OC | 89.1 | 102 | 93.4 | 105 | 91.6 | 76.8 | 32.5 | 26.3 | 33.8 | 23.9 | 25.2 | 84.2 | 87.9 | 86.5 | 99.2 | 92.7 | 85.7 | 39.9 | 12.5 | 19.3 | 16.6 | 16 | 92 | 81.5 | 92.9 | 90 | 93.6 | 91.3 | 47.7 | 20 | 19.4 | 20.2 | 17.5
CN(C)C1=CC(=CC=C1)C\2=C\3C(=O)N(NC3=C/C(=O)N2C)C4=CC=CC=C4Cl | 113 | 109 | 127 | 116 | 120 | 105 | 60.4 | 7.34 | 5.72 | 4.4 | 5.35 | 118 | 105 | 122 | 121 | 116 | 103 | 93 | 19.7 | 5.29 | 5.8 | 5.56 | 118 | 108 | 114 | 116 | 143 | 112 | 83.4 | 28.3 | 10.1 | 7.91 | 8.18
COc1cccc2c1C(=O)c1c(O)c3c(c(O)c1C2=O)C[C@@](O)(C(=O)CO)C[C@@H]3O[C@H]1C[C@H](N)[C@H](O[C@H]2CCCCO2)[C@H](C)O1 | 124 | 106 | 100 | 135 | 117 | 116 | 117 | 108 | 43 | 113 | 63 | 120 | 128 | 122 | 128 | 114 | 128 | 123 | 125 | 22.9 | 124 | 101 | 119 | 116 | 121 | 115 | 104 | 124 | 106 | 123 | 41.7 | 110 | 102
NC(=O)[C@H]1CCS[C@@H]2C[C@]3(CCCN3C(=O)Cc3ccc(NC(=O)COc4ccc(Cl)cc4Cl)cc3)C(=O)N12 | 111 | 138 | 123 | 134 | 139 | 123 | 102 | 36.8 | 39.9 | 42.3 | 52.3 | 107 | 129 | 121 | 131 | 138 | 131 | 119 | 103 | 26.1 | 26.6 | 38.9 |  |  |  |  |  |  |  |  |  |  | 
O=C1CCC[C@@H]2[C@H]3CCCN4CCC[C@@H](CN12)[C@@H]34 | 59.1 | 68.9 | 78.1 | 87.1 | 87.2 | 94.8 | 38.3 | 93.2 | 26.6 | 25.3 | 13.6 | 79 | 92.2 | 84.6 | 86.8 | 85.2 | 90.9 | 55.3 | 85.2 | 17.2 | 13.9 | 7.48 | 66.1 | 79.6 | 90.2 | 82.9 | 86 | 93.6 | 69.3 | 77.8 | 19.1 | 18.6 | 10.8
[O-]C(=O)C/1=N/C(=O)NC(=O)N1 | 87.7 | 108 | 92.9 | 96.9 | 101 | 95.1 | 86.3 | 96.9 | 85.4 | 83.4 | 88.9 | 93.5 | 96.8 | 99.9 | 88.9 | 92.8 | 91.8 | 86.3 | 91.3 | 85.4 | 80.9 | 93.1 | 90.2 | 93.2 | 88.2 | 86.2 | 90.8 | 92.8 | 81.1 | 78.5 | 79.9 | 77 | 81.8
